Assay results as given in patent US20260167614A1, “IDENTIFICATION OF SMALL MOLECULES THAT RECRUIT AND ACTIVATE RNASE L” (UNIVERSITY OF FLORIDA RESEARCH FOUNDATION, INCORPORATED, priority 2022, published 2026).

Columns and labels:
pre-miR-21 = assay: In vitro cleavage of dually labeled pre-miR-21 with RNase L; assay type: biochemical; conditions: incubated with RNase L
[1] = biological target: T1, pre-miR-21 mutant and RNase L (Homo sapiens, UniProt Q05823, H672N); assay: Co-immunoprecipitation of mutant pre-miR-21 and RNase L; assay type: binding; conditions: base paired mutant pre-miR-21, inactive RNase L
T1 construct: GST (N, cleaved yes); made in house; host or cells: BL21 AI Escherichia coli
T1 sequence (Q05823 1-741 H672N): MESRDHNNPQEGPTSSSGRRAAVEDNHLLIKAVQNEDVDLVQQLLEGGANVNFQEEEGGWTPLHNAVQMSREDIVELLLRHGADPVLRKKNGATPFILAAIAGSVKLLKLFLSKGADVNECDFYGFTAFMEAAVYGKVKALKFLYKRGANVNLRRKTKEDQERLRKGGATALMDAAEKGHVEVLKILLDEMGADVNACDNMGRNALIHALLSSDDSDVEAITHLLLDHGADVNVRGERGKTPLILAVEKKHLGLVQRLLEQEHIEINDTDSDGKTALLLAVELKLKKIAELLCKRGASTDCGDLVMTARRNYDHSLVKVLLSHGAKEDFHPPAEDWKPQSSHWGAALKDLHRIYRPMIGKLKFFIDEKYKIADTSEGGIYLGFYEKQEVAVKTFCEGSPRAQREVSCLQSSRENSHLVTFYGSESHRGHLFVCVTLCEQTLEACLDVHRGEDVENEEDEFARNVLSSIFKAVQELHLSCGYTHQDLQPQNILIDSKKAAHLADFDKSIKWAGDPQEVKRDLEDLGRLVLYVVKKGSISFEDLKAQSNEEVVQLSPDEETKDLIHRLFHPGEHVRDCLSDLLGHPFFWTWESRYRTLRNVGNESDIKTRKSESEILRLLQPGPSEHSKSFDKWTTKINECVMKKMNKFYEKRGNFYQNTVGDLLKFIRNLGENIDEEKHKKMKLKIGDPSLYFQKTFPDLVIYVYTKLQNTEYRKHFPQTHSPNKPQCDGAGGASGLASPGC
Procedure: Co-Immunoprecipitation of pre-miR-2I and RNase L. Approximately 20,000 cpm of 32P 5′-end labeled WT or mutant pre-miR-21 or an RNA construct where the A-bulge was mutated to a base pair (5′-[…] UGGGCUGU-3′) was folded in 1× RNase L Assay Buffer for 1 min at 95° C. and cooled on ice for 10 min. Following cooling, β-mercaptoethanol (7 mM), ATP (50 μM), and MgCl2 (1 mM) were added to the solution. The solution was aliquoted, and compounds were incubated in solution for 15 min (1% DMSO final concentration). […] Beads were then washed with 1×PBS supplemented with 0.02% (v/v) Tween-20. Radioactive signal in the supernatant and associated with the beads was quantified by a Beckman Coulter LS6500 Liquid Scintillation Counter. Relative RNA enrichment was calculated by comparing the radioactive signal associated with beads compared to the total radioactive signal from the beads plus the supernatant.

[2] = RiboTAC cellular uptake quantification; assay type: in vitro ADME; conditions: human, MDA-MB-231 cells; 5 μM in culture medium
Procedure: (§1) A time-course for RiboTAC degradation of pre-miR-21 was completed and compared to its cellular permeability. […] Additionally, degradation of pre-miR-21 is first detectable after 48 h of treatment with 7 (FIG. 10B).
(§2) RiboTAC Cellular Uptake Quantification. MDA-MB-231 cells were cultured as described in “Cell Culture” with a final cell density of 13,500 cells per well. Cells were treated with 7 (5 μM) for 0, 0.25, 0.5, 0.75, 1, 2, 3, 6, 12, 24, and 48 hours. Following treatment, cells were rapidly washed with 1×PBS to remove any unincorporated compound. Cells were then detached using 75 μl trypsin, immediately homogenized and flash frozen. The cell homogenate was analyzed using a Sciex 6500 mass spectrometer operated in multiple reaction monitoring mode with the transition m/z=1078.3/900.3. Homogenate drug levels were determined by comparison to a standard curve prepared in untreated cell homogenate. Calculated concentrations, (ng drug)/(ml homogenate) or μM drug inside cell, were fit to a one-phase association model using GraphPad Prism.

MDA-MB-231 cells = assay: RiboTAC cellular uptake quantification; assay type: in vitro ADME
Procedure: as §1, §2

[3] = test system: MDA-MB-231 cells modified with CRISPR and a control guide RNA; assay: Global proteomics analysis via LC-MS/MS; assay type: cell-based
Procedure: RiboTAC 7 was then assessed for its ability to affect protein levels by deactivation of a miR-21-mediated cancer circuit, i.e., derepression of PDCD4. […] Proteome-wide analysis was also completed to study the effects of 7 and a locked nucleic acid (LNA) oligonucleotide that targets miR-21-5p on the proteome. The concentrations tested of both provided similar activity (5 nM of 7 and 100 nM of the LNA), as assessed by their effect on PDCD4 levels, ˜40% enhancement. […] Neither modality affected proteins that are direct targets of miRNA let-7b-5p, further supporting that RiboTAC 7 is selectively deactivating a miR-21-mediated cancer circuit in cells (FIG. 11C-11D).
Global proteomics analysis via LC-MS/MS. MDA-MB-231 cells modified with CRISPR and a control guide RNA were treated as described in “Cell Culture.” After treatment, the medium was removed, and the cells were washed with 1×DPBS. After washing, the cells were scraped from the culture plates, and the resulting suspension was centrifuged. Cell pellets were resuspended in 1×DPBS, and protein concentration was determined using a Pierce Micro BCA Protein Assay Kit (ThermoScientific). Urea (9 M in 100 mM NH4HCO3, pH 8) was added to a final concentration of 6 M to 30 μg lysate (15 μL prepared in 1×DPBS). […] Peptides were desalted over a self-packed C18 spin column, dried, and analyzed via LC-MS/MS. […]

co-immunoprecipitation of RNA with RNase L [1]: not its base paired mutant
half-life at 5 μM [2]: 2.4 h
time to reach plateau of cellular accumulation (MDA-MB-231 cells; 5 μM in culture medium): about 8 h
concentration inside cells (MDA-MB-231 cells; after 48 h treatment with 5 μM in culture medium): 3.6 ± 1.2 µM
Compound: CNC(=O)[C@H](c1ccccc1)N(C)Cc1ccc(-c2cccc(-c3sccc3NC(=O)CCOCCOCCOCCC(=O)NCCN3CCN(c4ccc5nc(-c6c(N)c7c(F)cccc7[nH]c6=O)[nH]c5c4)CC3)c2)cc1 [RiboTAC 7, (S)—N-(2-(4-(2-(4-amino-5-fluoro-2-oxo-1,2-dihydroquinolin-3-yl)-1H-benzo[d]imidazol-6-yl)piperazin-1-yl)ethyl)-3-(2-(2-(3-((2-(4′-((methyl(2-(methylamino)-2-oxo-1-phenylethyl)amino)methyl)-[1,1′-biphenyl]-3-yl)thiophen-3-yl)amino)-3-oxopropoxy)ethoxy)ethoxy)propanamide]
cleavage of pre-miR-21 construct labeled with 6-FAM and BHQ (pre-miR-21): induced dose-dependent cleavage of pre-miR-21
abundance of miR-21-repressed proteins (cumulative distribution analysis) ([3]; proteins encoded by mRNAs with a miR-21-5p binding site in 3′ UTR): statistically significant increase
proteins affected of the 3176 proteins detected ([3]; proteome-wide, 7 and LNA at concentrations of similar activity): 0.6%
